# According to ChEMBL document CHEMBL5360622, “Leucettinibs, a Class of DYRK/CLK Kinase Inhibitors Inspired by the Marine Sponge Natural Product Leucettamine B” (J Med Chem, 2023):
# What was measured:
# [1] = target: Homeodomain-interacting protein kinase 2 (Homo sapiens) (UniProt Q9H2X6); details: dose 10.0 µM
# [2] = target: Serine/threonine-protein kinase pim-3 (Homo sapiens) (UniProt Q86V86); details: dose 10.0 µM
# [3] = target: T1, Mitogen-activated protein kinase 15 (Homo sapiens) (UniProt Q8TD08); details: dose 10.0 µM
# T1 sequence (whole entry): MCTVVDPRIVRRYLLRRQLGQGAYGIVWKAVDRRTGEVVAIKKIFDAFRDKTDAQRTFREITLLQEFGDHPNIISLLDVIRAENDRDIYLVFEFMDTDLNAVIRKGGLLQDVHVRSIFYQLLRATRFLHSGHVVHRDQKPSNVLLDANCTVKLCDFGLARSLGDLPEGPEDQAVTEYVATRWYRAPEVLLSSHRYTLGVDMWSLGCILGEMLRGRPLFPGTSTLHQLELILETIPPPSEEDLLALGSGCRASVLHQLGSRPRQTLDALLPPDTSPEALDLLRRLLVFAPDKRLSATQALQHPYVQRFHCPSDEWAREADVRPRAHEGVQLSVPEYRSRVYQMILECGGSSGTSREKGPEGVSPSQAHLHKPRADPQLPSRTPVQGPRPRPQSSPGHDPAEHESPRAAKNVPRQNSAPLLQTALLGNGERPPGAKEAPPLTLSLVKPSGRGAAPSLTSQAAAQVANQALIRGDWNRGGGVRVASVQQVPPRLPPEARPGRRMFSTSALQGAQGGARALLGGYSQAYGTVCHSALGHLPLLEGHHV
# [4] = target: Dual specificity tyrosine-phosphorylation-regulated kinase 1A (Homo sapiens, UniProt Q13627)
# [5] = target: Dual specificity protein kinase CLK2 (Homo sapiens, UniProt P49760)
# [6] = target: Dual specificity protein kinase CLK4 (Homo sapiens, UniProt Q9HAZ1)
# [7] = target: Cyclin-dependent kinase 5/CDK5 activator 1 (Homo sapiens, UniProt Q00535); assay type: cell-based, Sf9
# [8] = target: T2, Dual specificity tyrosine-phosphorylation-regulated kinase 4 (Homo sapiens, UniProt Q9NR20)
# T2 sequence (Q9NR20 whole entry): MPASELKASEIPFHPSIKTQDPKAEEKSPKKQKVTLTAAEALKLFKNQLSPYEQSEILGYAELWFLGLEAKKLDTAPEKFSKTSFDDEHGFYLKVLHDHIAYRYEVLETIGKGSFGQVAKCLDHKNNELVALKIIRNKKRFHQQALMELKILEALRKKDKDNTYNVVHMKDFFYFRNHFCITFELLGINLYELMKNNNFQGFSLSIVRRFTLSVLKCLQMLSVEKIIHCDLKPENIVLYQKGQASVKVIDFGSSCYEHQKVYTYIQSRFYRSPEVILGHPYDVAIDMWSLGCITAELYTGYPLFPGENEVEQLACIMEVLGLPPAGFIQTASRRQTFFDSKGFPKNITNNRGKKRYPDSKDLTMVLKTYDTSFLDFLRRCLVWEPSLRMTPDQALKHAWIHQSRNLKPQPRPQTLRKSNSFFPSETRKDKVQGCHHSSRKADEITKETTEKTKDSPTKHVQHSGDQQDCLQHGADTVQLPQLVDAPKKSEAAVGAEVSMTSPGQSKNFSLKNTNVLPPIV
# [9] = target: T3, Dual specificity protein kinase CLK3 (Homo sapiens, UniProt P49761); assay type: cell-based, Sf9
# Target sequence in this assay (P49761 whole entry, canonical isoform): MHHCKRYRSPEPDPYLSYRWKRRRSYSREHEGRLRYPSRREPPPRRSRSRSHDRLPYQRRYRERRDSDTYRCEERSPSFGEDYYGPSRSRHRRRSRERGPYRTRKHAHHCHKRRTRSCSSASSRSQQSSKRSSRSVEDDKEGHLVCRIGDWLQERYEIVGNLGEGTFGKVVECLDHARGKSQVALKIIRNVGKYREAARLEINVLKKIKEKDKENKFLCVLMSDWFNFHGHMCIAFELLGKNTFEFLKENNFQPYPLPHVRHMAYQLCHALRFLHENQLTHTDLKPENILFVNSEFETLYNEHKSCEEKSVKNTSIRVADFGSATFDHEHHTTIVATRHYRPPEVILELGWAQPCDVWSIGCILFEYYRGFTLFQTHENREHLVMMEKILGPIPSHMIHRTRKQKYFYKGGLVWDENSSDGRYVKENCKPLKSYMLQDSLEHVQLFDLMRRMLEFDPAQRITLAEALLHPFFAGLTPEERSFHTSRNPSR
# [10] = target: T4, Casein kinase I isoform epsilon (Homo sapiens, UniProt P49674)
# Target sequence in this assay (P49674 whole entry, canonical isoform): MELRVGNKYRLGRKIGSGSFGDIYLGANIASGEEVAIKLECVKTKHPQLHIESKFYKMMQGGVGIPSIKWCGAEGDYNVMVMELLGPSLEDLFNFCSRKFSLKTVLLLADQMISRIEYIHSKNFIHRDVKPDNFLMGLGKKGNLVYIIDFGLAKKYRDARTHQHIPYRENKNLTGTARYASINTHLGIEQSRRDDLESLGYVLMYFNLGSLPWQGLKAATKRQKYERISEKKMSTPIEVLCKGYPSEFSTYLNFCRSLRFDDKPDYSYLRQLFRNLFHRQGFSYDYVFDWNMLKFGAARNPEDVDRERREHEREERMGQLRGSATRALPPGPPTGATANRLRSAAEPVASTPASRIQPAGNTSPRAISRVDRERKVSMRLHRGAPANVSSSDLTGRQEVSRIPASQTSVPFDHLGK
# [11] = target: T5, Dual specificity tyrosine-phosphorylation-regulated kinase 2 (Homo sapiens, UniProt Q92630)
# T5 sequence (Q92630 whole entry): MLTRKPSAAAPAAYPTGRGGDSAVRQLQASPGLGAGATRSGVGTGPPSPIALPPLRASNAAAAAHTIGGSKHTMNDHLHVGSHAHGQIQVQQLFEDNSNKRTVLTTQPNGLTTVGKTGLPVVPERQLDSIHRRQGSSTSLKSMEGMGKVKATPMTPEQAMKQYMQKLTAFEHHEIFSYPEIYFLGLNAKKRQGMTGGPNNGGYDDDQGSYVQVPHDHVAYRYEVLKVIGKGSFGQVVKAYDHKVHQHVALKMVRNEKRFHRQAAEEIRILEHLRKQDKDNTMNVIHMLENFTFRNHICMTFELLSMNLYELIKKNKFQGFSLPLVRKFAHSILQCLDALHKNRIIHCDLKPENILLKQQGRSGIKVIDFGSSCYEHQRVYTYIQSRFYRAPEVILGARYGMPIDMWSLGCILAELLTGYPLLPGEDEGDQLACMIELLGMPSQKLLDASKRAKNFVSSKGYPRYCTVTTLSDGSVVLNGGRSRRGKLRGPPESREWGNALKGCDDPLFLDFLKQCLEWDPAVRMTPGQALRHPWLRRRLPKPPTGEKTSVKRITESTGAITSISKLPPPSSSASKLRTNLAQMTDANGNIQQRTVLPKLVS
# [12] = target: T6, Glycogen synthase kinase-3 beta (Homo sapiens, UniProt P49841); assay type: cell-based, Sf9
# Target sequence in this assay (P49841 whole entry): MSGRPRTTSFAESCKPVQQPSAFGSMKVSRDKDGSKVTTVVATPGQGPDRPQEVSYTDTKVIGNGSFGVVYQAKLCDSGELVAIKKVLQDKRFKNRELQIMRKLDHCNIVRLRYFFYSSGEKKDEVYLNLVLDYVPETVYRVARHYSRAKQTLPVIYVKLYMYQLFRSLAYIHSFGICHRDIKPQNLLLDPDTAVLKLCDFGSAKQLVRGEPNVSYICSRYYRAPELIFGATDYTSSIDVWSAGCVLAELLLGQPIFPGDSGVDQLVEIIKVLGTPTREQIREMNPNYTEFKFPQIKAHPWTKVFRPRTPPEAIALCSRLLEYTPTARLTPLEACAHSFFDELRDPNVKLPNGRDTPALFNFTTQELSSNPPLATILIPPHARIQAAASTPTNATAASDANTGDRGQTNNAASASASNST
# [13] = target: T7, Dual specificity protein kinase CLK1 (Homo sapiens, UniProt P49759); assay type: cell-based, Sf9
# Target sequence in this assay (P49759 whole entry): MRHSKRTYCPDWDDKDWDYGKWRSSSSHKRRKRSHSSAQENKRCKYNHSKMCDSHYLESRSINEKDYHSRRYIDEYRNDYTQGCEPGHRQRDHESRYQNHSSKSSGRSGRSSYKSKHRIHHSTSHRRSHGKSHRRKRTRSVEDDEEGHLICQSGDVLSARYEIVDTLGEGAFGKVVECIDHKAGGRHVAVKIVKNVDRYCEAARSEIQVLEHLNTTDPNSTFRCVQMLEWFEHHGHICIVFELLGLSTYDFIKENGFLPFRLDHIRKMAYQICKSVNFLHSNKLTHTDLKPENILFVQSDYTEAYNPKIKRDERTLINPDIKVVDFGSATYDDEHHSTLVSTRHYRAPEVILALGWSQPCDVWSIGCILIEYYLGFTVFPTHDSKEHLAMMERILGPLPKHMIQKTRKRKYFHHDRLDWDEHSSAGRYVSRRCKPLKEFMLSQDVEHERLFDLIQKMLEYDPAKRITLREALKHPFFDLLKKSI
# [14] = target: T8, Dual specificity tyrosine-phosphorylation-regulated kinase 3 (Homo sapiens, UniProt O43781)
# T8 sequence (O43781 whole entry): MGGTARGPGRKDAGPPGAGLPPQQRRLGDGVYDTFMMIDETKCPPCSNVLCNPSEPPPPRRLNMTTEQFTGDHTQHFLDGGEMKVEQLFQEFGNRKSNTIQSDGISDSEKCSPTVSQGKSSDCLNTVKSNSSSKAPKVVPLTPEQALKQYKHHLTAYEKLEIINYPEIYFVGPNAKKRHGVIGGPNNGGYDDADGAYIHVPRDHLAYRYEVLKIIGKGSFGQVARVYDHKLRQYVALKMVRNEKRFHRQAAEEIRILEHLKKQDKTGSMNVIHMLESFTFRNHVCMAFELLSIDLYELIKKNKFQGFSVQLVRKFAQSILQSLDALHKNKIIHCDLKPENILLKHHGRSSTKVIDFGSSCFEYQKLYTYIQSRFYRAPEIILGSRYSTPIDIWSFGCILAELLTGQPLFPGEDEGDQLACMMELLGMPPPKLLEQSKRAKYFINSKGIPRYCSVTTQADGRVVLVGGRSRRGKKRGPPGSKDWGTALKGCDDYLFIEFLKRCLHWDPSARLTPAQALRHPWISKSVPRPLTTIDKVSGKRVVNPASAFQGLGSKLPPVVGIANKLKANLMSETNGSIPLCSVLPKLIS
# [15] = target: Casein kinase I isoform delta (Homo sapiens) (UniProt P48730); details: dose 10.0 µM
# [16] = target: T4, Casein kinase I isoform epsilon; details: dose 10.0 µM
# Target sequence in this assay (P49674 whole entry, looked up, canonical isoform): as the sequence (P49674 whole entry, canonical isoform) above
# [17] = target: T7, Dual specificity protein kinase CLK1; details: dose 10.0 µM
# [18] = target: Dual specificity tyrosine-phosphorylation-regulated kinase 2 (Homo sapiens) (UniProt Q92630); details: dose 10.0 µM
# [19] = target: Aurora kinase A (Homo sapiens) (UniProt O14965); details: dose 10.0 µM
# [20] = target: BMP-2-inducible protein kinase (Homo sapiens) (UniProt Q9NSY1); details: dose 10.0 µM
# [21] = target: T3, Dual specificity protein kinase CLK3; details: dose 10.0 µM
# [22] = target: Calcium/calmodulin-dependent protein kinase kinase 2 (Homo sapiens) (UniProt Q96RR4); details: dose 10.0 µM
# [23] = target: Serine/threonine-protein kinase haspin (Homo sapiens) (UniProt Q8TF76); details: dose 10.0 µM
# [24] = target: T6, Glycogen synthase kinase-3 beta; details: dose 10.0 µM
# [25] = target: AP2-associated protein kinase 1 (Homo sapiens) (UniProt Q2M2I8); details: dose 10.0 µM
# [26] = target: Casein kinase II subunit alpha (Homo sapiens) (UniProt P68400); details: dose 10.0 µM
# [27] = target: Myotonin-protein kinase (Homo sapiens) (UniProt Q09013); details: dose 10.0 µM
# Cyclin-dependent kinase 5/CDK5 activator 1, sequence (Q00535 whole entry): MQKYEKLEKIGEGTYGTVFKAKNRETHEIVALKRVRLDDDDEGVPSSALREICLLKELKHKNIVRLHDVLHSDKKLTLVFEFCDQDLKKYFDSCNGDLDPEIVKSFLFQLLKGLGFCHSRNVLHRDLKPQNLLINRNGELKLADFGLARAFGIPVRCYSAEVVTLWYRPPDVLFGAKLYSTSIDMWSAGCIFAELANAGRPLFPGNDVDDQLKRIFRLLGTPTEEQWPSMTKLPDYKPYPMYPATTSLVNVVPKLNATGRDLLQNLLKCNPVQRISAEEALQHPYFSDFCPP
# Cyclin-dependent kinase 5/CDK5 activator 1, sequence (Q15078 whole entry, further chain): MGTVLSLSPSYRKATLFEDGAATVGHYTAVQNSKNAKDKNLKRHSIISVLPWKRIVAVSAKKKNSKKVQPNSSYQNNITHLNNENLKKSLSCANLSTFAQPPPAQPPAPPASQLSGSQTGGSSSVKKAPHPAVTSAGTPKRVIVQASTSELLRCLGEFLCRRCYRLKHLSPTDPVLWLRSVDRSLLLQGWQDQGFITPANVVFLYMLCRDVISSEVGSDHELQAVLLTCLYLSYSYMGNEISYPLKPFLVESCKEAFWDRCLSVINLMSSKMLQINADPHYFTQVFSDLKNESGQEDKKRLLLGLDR
# Dual specificity protein kinase CLK4, sequence (Q9HAZ1 whole entry): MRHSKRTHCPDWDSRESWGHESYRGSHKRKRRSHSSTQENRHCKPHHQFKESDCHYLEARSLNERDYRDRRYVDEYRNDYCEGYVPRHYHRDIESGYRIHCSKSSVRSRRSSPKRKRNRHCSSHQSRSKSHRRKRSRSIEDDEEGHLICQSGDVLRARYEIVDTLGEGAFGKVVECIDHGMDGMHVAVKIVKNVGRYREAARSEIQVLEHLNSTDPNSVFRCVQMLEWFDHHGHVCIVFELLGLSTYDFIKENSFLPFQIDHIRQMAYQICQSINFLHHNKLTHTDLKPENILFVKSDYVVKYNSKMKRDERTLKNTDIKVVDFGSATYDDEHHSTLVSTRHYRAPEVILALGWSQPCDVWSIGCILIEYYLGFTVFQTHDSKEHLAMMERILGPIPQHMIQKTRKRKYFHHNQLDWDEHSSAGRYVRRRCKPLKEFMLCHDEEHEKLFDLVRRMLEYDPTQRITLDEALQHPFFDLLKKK
# Dual specificity protein kinase CLK2, sequence (P49760 whole entry): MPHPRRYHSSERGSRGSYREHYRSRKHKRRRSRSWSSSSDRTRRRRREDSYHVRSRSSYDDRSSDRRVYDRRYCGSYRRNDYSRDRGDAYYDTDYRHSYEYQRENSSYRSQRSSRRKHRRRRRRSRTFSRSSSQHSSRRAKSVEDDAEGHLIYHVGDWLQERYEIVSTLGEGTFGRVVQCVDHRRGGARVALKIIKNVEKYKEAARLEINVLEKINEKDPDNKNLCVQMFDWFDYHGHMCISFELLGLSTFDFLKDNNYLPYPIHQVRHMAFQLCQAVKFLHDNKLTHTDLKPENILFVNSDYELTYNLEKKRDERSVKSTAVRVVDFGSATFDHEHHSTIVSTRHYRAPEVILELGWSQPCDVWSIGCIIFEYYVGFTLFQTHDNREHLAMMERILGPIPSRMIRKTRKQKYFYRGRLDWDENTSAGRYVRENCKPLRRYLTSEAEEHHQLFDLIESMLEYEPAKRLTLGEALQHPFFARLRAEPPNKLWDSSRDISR
# Homeodomain-interacting protein kinase 2 (Homo sapiens), sequence (Q9H2X6 whole entry, looked up): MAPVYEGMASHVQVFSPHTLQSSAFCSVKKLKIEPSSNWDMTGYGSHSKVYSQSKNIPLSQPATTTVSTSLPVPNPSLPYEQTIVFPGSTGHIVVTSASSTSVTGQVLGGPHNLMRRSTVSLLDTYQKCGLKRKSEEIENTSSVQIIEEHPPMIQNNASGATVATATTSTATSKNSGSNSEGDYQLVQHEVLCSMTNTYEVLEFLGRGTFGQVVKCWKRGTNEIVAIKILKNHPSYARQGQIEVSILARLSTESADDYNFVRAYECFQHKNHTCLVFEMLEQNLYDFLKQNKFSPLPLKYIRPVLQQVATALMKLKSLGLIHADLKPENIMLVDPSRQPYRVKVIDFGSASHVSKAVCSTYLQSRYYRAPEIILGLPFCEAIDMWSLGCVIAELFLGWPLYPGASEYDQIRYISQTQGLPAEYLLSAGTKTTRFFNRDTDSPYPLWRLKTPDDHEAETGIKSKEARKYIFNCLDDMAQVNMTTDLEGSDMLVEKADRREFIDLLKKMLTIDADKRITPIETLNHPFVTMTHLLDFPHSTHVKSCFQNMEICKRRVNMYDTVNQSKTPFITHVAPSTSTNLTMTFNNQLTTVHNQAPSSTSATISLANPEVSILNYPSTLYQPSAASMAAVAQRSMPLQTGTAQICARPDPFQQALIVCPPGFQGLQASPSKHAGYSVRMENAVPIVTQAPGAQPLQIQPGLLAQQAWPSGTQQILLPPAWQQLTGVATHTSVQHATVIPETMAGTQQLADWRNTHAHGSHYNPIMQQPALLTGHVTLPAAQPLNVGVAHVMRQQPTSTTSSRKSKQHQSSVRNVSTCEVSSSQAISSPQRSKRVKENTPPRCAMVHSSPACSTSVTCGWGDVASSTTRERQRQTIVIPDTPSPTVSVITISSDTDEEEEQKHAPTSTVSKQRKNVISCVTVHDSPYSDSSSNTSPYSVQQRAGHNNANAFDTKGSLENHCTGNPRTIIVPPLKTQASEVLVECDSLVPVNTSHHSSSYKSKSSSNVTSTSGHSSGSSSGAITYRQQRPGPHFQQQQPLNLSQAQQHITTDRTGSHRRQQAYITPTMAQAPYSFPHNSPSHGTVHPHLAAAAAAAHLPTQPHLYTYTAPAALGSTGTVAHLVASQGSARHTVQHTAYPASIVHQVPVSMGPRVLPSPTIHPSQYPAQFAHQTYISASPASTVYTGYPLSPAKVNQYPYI
IC50 [4] [µM],IC50 [5] [µM],IC50 [6] [µM],IC50 [7] [µM],IC50 [8] [µM],IC50 [9] [µM],IC50 [10] [µM],IC50 [11] [µM],IC50 [12] [µM],IC50 [13] [µM],IC50 [14] [µM],Compound,also measured
–,–,–,–,–,–,–,–,–,–,–,CN[C@@H]1C[C@H]2O[C@@](C)([C@@H]1OC)n1c3ccccc3c3c4c(c5c6ccccc6n2c5c31)C(=O)NC4,ΔTm [1]: 4.5 °C; ΔTm [2]: 11.9 °C; ΔTm [3]: 14 °C
0.007,0.086,0.007,> 10,2.29,0.284,> 10,0.413,5.14,0.02,1.23,COC(=O)[C@H](C)NC1=N/C(=C\c2ccc3ncsc3c2)C(=O)N1,–
> 10,> 10,> 10,> 10,> 10,> 10,> 10,> 10,> 10,> 10,> 10,Cn1ccc2cc(/C=C3\N=C(NC4CCCCCC4)NC3=O)ccc21,–
–,–,–,–,–,–,–,–,–,–,–,Nc1nccc(-c2c(-c3ccc(F)cc3)ncn2C2CCCCC2)n1,ΔTm [15]: 9 °C; ΔTm [16]: 8 °C
–,–,–,–,–,–,–,–,–,–,–,O=C1NC(NC23CC4CC(CC(C4)C2)C3)=N/C1=C\c1ccc2ncsc2c1,ΔTm [17]: 19.9 °C; ΔTm [15]: 5 °C; ΔTm [18]: 12.4 °C; ΔTm [19]: 7.5 °C; ΔTm [16]: 5.5 °C; ΔTm [20]: 9.8 °C; ΔTm [1]: 5.2 °C; ΔTm [21]: 9.7 °C; ΔTm [22]: 10.2 °C; ΔTm [23]: 7.6 °C; ΔTm [2]: 5.5 °C; ΔTm [24]: 6.5 °C; ΔTm [25]: 6.1 °C; ΔTm [3]: 10.3 °C; ΔTm [26]: 9.7 °C; ΔTm [27]: 5.6 °C
> 10,> 10,> 10,> 10,> 10,> 10,> 10,> 10,> 10,> 10,> 10,Cn1cnc2cc(/C=C3\N=C(NC4CCCCCC4)NC3=O)ccc21,–
0.957,3.61,2.55,> 10,> 10,> 10,> 10,> 10,> 10,8.83,> 10,O=C1NC(NC23CC4CC(CC(C4)C2)C3)=N/C1=C\c1ccc2[nH]ccc2c1,–
0.013,0.174,0.011,> 10,0.617,0.285,> 10,0.566,3.02,0.018,1.14,O=C1NC(NC2CCCCCC2)=N/C1=C\c1ccc2ncoc2c1,–
> 10,> 10,> 10,> 10,> 10,> 10,> 10,> 10,> 10,> 10,> 10,Cn1ccc2cc(/C=C3\N=C(NC4CCCCC4)NC3=O)ccc21,–
> 10,> 10,> 10,> 10,> 10,> 10,> 10,> 10,> 10,> 10,> 10,O=C1NC(NC2CCCCC2)=N/C1=C\c1ccc2[nH]ccc2c1,–
> 10,> 10,> 10,> 10,> 10,> 10,> 10,> 10,> 10,> 10,> 10,Cn1cnc2cc(/C=C3\N=C(NC4CCCCC4)NC3=O)ccc21,–
–,–,–,–,–,–,–,–,–,–,–,CN1CCN(C(=O)C(C)(C)c2ccc(C(=O)Nc3cn4cc(-c5ccncc5)ccc4n3)cc2)CC1,ΔTm [17]: 15.7 °C; ΔTm [21]: 15 °C
> 10,> 10,> 10,> 10,> 10,> 10,> 10,> 10,> 10,> 10,> 10,Cn1cnc2cc(/C=C3\N=C(NC45CC6CC(CC(C6)C4)C5)NC3=O)ccc21,–
0.047,0.826,0.02,> 10,1.23,4.44,> 10,5.08,> 10,0.042,3.19,O=C1NC(NC2CCCCCC2)=N/C1=C\c1ccc2c(c1)OCO2,–
